Measurements as given in the NIST ThermoML archive (doi:10.1016/j.tca.2008.12.007).

Test: xn = mol fraction of the nth substance listed
Details: 101 kPa, Liquid, Vibrating tube method

C1CCCNCC1 [azacycloheptane] + O
mass density [kg/m3]
Details | 313.15 K | 318.15 K | 323.15 K | 333.15 K | 343.15 K | 348.15 K | 353.15 K
x2 = 0.0199 | – | 860.37 | 855.9 | 846.92 | 837.91 | 833.38 | 828.84
x2 = 0.0395 | – | 861.39 | 856.9 | 847.9 | 838.84 | 834.3 | 829.73
x2 = 0.0821 | – | 863.99 | 859.48 | 850.41 | 841.28 | 836.69 | 832.07
x2 = 0.1198 | – | 866.23 | 861.7 | 852.59 | 843.4 | 838.79 | 834.14
x2 = 0.1594 | – | 868.63 | 864.08 | 854.93 | 845.7 | 841.06 | 836.38
x2 = 0.1994 | – | 871.37 | 866.81 | 857.62 | 848.34 | 843.67 | 838.95
x2 = 0.2498 | – | 874.79 | 870.21 | 860.98 | 851.65 | 846.94 | 842.2
x2 = 0.3 | 882.83 | 878.26 | 873.67 | 864.4 | 855.03 | 850.31 | 845.54
x2 = 0.3499 | 886.76 | 882.18 | 877.58 | 868.28 | 858.87 | 854.12 | 849.32
x2 = 0.4 | 890.72 | 886.14 | 881.52 | 872.21 | 862.76 | 857.99 | 853.18
x2 = 0.4529 | 895.39 | 890.8 | 886.19 | 876.87 | 867.39 | 862.6 | 857.76
x2 = 0.5008 | 899.86 | 895.29 | 890.68 | 881.36 | 871.87 | 867.08 | 862.24
x2 = 0.5041 | 899.86 | 895.28 | 890.68 | 881.35 | 871.87 | 867.07 | 862.22
x2 = 0.5508 | 904.48 | 899.93 | 895.33 | 886.03 | 876.55 | 871.76 | 866.92
x2 = 0.5992 | 909.37 | 904.85 | 900.28 | 891.02 | 881.58 | 876.78 | 871.95
x2 = 0.65 | 915.05 | 910.58 | 906.06 | 896.87 | 887.5 | 882.74 | 877.92
x2 = 0.699 | 920.96 | 916.55 | 912.1 | 903.03 | 893.76 | 889.04 | 884.27
x2 = 0.7496 | 927.77 | 923.47 | 919.11 | 910.24 | 901.13 | 896.49 | 891.79
x2 = 0.7994 | 935.59 | 931.44 | 927.23 | 918.61 | 909.74 | 905.21 | 900.62
x2 = 0.8398 | 942.92 | 938.93 | 934.88 | 926.57 | 917.97 | 913.57 | 909.09
x2 = 0.8799 | 951.63 | 947.87 | 944.03 | 936.13 | 927.91 | 923.42 | 918.78
x2 = 0.92 | 962.53 | 959.11 | 955.59 | 948.28 | 942.9 | 938.07 | 933.73
x2 = 0.9599 | 976.48 | 973.55 | 970.5 | 964.06 | 958.32 | 954.48 | –
x2 = 0.96 | 976.54 | 973.61 | 970.56 | 964.12 | 958.4 | 954.96 | –
x2 = 0.9699 | 980.66 | 977.9 | 975.01 | 968.88 | 963.25 | – | –
x2 = 0.98 | 985.06 | 982.5 | 979.8 | 974.02 | 967.74 | 964.39 | 961.1
